Test results reported in article PMC12624434 (ACS Pharmacology & Translational Science, 2025).

Legend:
[1] = target: T1, NRP1 b1 domain (Homo sapiens, UniProt O14786); assay: SPR binding to immobilized NRP1 b1 domain (Biacore 4000, CM5 chip)
T1 construct: with the purified recombinant NRP1 b1 domain immobilized on the chip; inferred from Ni-NTA capture), TEV-cleavable (cleaved yes); made in house; host or cells: E. coli Rosetta (DE3)
T1 sequence (O14786 275-424 limits assumed): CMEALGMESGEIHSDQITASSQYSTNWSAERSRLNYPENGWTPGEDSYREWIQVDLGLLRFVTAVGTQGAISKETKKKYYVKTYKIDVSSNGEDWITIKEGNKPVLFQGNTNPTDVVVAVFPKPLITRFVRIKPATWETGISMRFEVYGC
Protocol: Surface Plasmon Resonance experiments were performed using a Biacore 4000 instrument at a constant temperature of 25 °C. Sensor chips, buffer stock solutions, and immobilization reagents were purchased from GE Healthcare. Recombinant human NRP1-b1 was produced in-house and recombinant human NRP1-ECD (extracellular domain) was purchased from ACRO (catalogue number NR1-H5A228). All other reagents were obtained from Sigma.
PBS containing 0.05% surfactant P20 was used as the running buffer during immobilization. NRP1-b1 was immobilized onto a CM5 chip using random amine coupling. The four flow cells were treated in the same way to optimize throughput. In summary, spots 1 and 2 were activated with the coupling reagents EDC and NHS for 10 min. NRP1-b1 at a concentration of 20 μg/mL in 10 mM sodium acetate pH 5 was injected onto the surface for 10 and 5 min in spots 1 and 2, respectively to generate surfaces with high and low density. […] The unmodified spot 3 was used as a reference.
PBS buffer containing 0.05% surfactant P20 and 3% DMSO was used as the running buffer and sample dilution buffer throughout these experiments. Dose–responses were obtained using a 2-fold sample dilution from 16 μM to 31 nM, using an injection time of 60 s. Surface regeneration between injections was not necessary, but a wash step with 1 M NaCl was included after injection of the highest concentration sample for each compound.
Binding curves were corrected for variations in DMSO concentration and normalized by molecular weight. Binding results to high and low-density surfaces were processed independently and the average ± SD is presented. K Ds reported are derived from steady-state binding responses and therefore correspond to the equilibrium binding affinity of the compounds.

[2] = Pharmacokinetics in mice, 2 mg/kg iv; format: in vivo; conditions: female, BALB/c, mouse, plasma
Protocol: To test compound drug-like properties, selected compounds with low IC50 were further evaluated for their pharmacokinetic (PK) profile. 6–8 week-old BABL/c female mice were used. Two mg/kg of compounds was formulated in 7.5% DMSO and 92.5% PBS solution and intravenously dosed into the tail vein as a bolus. Blood samples were collected by cardiac puncture at 5, 15, 30, 60, 180, and 240 min post dosing. Plasma samples were prepared by centrifugation at 7000 rpm for 5 min, and supernatants were collected, immediately snap-frozen on dry ice and stored at −20 °C. Samples were analyzed by liquid chromatography-tandem mass spectrometry using electrospray ionization and data was analyzed by WinNonlin software.

[3] = tested on: T180/Y182 phosphorylated p38 (P-p38) in retinal endothelium; assay: VEGFA-induced p38 phosphorylation in ex vivo mouse retina (immunostaining); format: cell-based
Protocol: Retinae from C57Bl/6J mice were fixed in 4% formaldehyde in PBS for 1 h and washed three times with PBS. After 1 h in blocking buffer (3% Triton X-100, 1%1% Tween and 0.5% BSA in 2× PBS), retinae were immunostained by incubation with rabbit anti-P-p38 MAPK (Thr180/Tyr182) antibody (Cell Signaling) and biotin-conjugated Isolectin B4 (IB4, Merck) overnight at 4 °C, followed by Alexa Fluor 555–conjugated goat antirabbit antibodies (Invitrogen) and Alexa Fluor 488-conjugated streptavidin (Invitrogen) respectively for 1 h at rt. Images were acquired with a Zeiss Axioskop 2 microscope, using a ph3 Plan-Apochromat 63×/1.40 oil objective, Hamamatsu camera and the HCImage software. Each image was acquired as an RGB color image and then processed with ImageJ software version 1.52a (NIH Bethesda). Channels were split to separate the IB4 staining (green channel) from the P-p38 staining (red channel). The threshold function was used on the IB4 image to determine the area of the vessels and to generate a mask that was restored in the red channel image to measure the area of the vessels positive to P-p38 staining. The P-p38 staining area was normalized against the area stained with IB4. Three retinae from three different mice per condition were used for analysis. One-way ANOVA was used to compare the different treatments.

[4] = tested on: P-p38 in human brain endothelial cell line hCMEC/D3; assay: p38 phosphorylation in hCMEC/D3 cells (immunoblotting); format: cell-based
Protocol: Cell lysates of the human brain endothelial cell line hCMEC/D3 were prepared in RIPA buffer containing 0.1% SDS, protease inhibitor cocktail 2 and phosphatase inhibitor cocktail (Sigma-Aldrich). Proteins were separated by SDS-PAGE and transferred to nitrocellulose by wet electrotransfer. Membranes were blocked with 5% milk in Tris-buffered saline (TBS) overnight at 4 °C and then incubated with the appropriate primary antibody diluted in TBS containing 0.1% Tween-20 and 1% BSA for 2 h and 30 min at rt; the primary antibodies used were specific for phospho P-p38, p38 (1:1000; Cell Signaling Technology) and GADPH (1:10000; Merck). Membranes were washed with 0.1% Tween-20 in TBS and then incubated with goat antimouse or goat antirabbit horseradish peroxidase (HRP)-conjugated IgG (GE Healthcare) diluted 1:10,000 or 1:5000, respectively, with 0.1% Tween-20, 1% BSA in PBS. Membranes were developed using the ECL reagents (Roche) and images were acquired with the Bio-Rad ChemiDoc MP Imaging System and the Bio-Rad Image Lab software (version 6.0.1). Protein bands were quantified using ImageJ software version 1.52a (NIH Bethesda), whereby signal intensity was normalized to signal intensity from GADPH from the same sample as a loading control. Phosphorylation levels were normalized against the total levels of p38. Densitometric quantification of three independent immunoblots was determined by changes in protein or phosphoprotein content normalized to GADPH total protein loading controls, with values expressed as fold increase. Data are shown as mean ± SD. Statistical analysis included one-way ANOVA with significance levels set at 0.05, followed by posthoc Dunnett’s tests.

[5] = 30 μM, 15 min prior to VEGFA165 stimulation

- kon ([1]; Figure 2B, SPR-derived binding parameters, read-out: ka): 1.16e+06 M⁻¹ s⁻¹
- Kd ([1]; steady-state binding, 25 °C, mean ± SD, read-out: SPR NRP1 b1 domain equilibrium KD): 600 ± 100 nM
- AUC(0-inf) [2]: 1370 ng·h/mL
- AUC(0-t) [2]: 1370 ng·h/mL
- Cmax [2]: 5180 ng/mL
- Tmax [2]: 4.8 min
- Vd [2]: 0.394 L/kg
- half-life [2]: 78 min
- clearance ([2]; iv, 2 mg/kg): 24.5 mL/min/kg
- AUC ([2]; read-out: AUC): 1370 ng·h/mL
Compound: N=C(N)NCCC[C@H](NC(=O)c1sccc1NS(=O)(=O)c1cc(NCc2csc(N3CCNCC3)n2)cc2cccnc12)C(=O)O.O=CO [Compound 12h, (2S)-5-Guanidino-2-[[3-[[6-[(2-piperazin-1-ylthiazol-4-yl)-methylamino]-8-quinolyl]-sulfonylamino]-thiophene-2-carbonyl]-amino]-pentanoic Acid, Formic Acid]
- p38 phosphorylation when added alone ([3]; 30 μM alone, 5 min): did not induce p38 phosphorylation
- effect on VEGFA-induced p38 phosphorylation in retinal endothelium [3, 5]: prevented VEGFA-induced p38 phosphorylation
- p38 phosphorylation when added alone ([4]; 30 μM alone, 5 min): did not induce p38 phosphorylation
- effect on VEGFA-induced p38 phosphorylation [4, 5]: prevented VEGFA-induced p38 phosphorylation
